Measured values published in the kinase profiling compilation of Christmann-Franck et al. (2016).

How the values were obtained:
Assay in all cases: SelectScreen, TR FRET
[1] = molecular target: AKT1 (human) (UniProt P31749)
[2] = molecular target: AKT3 (human) (UniProt Q9Y243)
[3] = molecular target: AURKB (human) (UniProt Q96GD4)
[4] = molecular target: CHEK1 (human) (UniProt O14757)
[5] = molecular target: CLK2 (human) (UniProt P49760)
[6] = molecular target: IKBKB (human) (UniProt O14920)
[7] = molecular target: ITK (human) (UniProt Q08881)
Sequence of ITK (human) (Q08881 whole entry, looked up): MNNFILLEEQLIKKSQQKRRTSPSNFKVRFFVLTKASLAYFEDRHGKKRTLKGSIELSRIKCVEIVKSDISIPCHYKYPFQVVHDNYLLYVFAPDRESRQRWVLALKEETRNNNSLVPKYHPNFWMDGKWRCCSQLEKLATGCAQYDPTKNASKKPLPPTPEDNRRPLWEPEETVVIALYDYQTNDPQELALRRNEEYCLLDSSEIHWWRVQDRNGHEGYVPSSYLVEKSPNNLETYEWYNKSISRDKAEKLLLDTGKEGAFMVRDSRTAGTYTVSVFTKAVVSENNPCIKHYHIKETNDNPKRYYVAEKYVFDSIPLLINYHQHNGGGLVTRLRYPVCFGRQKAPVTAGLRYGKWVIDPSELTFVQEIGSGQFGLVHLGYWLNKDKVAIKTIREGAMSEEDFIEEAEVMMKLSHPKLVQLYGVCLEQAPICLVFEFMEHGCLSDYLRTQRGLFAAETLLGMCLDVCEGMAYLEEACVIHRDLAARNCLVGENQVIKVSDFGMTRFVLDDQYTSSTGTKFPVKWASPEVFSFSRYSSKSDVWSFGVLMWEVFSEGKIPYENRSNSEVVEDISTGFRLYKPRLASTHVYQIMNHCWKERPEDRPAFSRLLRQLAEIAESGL

[8] = molecular target: MAPK14 (human) (UniProt Q16539)
Sequence of MAPK14 (human) (Q16539 whole entry, looked up): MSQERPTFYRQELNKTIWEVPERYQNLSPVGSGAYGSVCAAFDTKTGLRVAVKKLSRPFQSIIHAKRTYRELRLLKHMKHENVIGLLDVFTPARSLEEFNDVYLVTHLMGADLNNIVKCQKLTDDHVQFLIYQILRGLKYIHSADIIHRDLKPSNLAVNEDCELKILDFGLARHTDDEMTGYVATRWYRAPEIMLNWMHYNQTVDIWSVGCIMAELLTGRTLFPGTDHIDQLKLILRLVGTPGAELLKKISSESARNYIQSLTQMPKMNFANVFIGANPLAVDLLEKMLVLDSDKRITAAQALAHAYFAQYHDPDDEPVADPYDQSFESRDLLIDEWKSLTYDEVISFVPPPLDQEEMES

[9] = molecular target: MINK1 (human) (UniProt Q8N4C8)
[10] = molecular target: MST4 (human) (UniProt Q9P289)
Sequence of MST4 (human) (Q9P289 whole entry, looked up): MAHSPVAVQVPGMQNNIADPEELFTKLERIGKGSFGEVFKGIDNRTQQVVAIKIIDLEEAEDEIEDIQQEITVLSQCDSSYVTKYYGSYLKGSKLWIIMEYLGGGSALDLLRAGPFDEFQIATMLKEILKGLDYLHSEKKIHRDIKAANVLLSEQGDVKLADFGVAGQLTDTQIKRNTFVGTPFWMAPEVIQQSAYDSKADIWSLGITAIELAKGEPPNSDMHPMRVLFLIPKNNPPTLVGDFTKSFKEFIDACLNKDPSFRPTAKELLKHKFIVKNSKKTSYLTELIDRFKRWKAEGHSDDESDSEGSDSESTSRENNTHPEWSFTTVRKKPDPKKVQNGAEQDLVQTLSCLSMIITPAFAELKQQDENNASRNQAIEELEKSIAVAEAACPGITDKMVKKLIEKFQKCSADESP

[11] = molecular target: NTRK1 (human) (UniProt P04629)
[12] = molecular target: PLK1 (human) (UniProt P53350)
[13] = molecular target: PRKAA2 PRKAB1 PRKAG1 (human) (UniProt Q9Y478+P54646+P54619); conditions: compound 0.1 µM
[14] = molecular target: PRKACA (human) (UniProt P17612)
[15] = molecular target: PTK6 (human) (UniProt Q13882)
Sequence of PTK6 (human) (Q13882 whole entry, looked up): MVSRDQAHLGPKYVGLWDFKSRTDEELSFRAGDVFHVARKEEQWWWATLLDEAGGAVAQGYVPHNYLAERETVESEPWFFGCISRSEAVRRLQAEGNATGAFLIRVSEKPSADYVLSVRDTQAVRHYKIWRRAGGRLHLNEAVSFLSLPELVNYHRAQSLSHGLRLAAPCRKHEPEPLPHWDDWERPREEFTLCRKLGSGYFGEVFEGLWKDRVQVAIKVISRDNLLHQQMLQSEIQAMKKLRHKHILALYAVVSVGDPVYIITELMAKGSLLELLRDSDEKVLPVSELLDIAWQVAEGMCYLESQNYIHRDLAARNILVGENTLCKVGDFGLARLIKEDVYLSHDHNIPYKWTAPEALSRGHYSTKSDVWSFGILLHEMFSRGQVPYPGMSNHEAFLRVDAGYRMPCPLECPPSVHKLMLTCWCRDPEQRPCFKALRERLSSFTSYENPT

Sequence of AURKB (human) (Q96GD4 whole entry, looked up): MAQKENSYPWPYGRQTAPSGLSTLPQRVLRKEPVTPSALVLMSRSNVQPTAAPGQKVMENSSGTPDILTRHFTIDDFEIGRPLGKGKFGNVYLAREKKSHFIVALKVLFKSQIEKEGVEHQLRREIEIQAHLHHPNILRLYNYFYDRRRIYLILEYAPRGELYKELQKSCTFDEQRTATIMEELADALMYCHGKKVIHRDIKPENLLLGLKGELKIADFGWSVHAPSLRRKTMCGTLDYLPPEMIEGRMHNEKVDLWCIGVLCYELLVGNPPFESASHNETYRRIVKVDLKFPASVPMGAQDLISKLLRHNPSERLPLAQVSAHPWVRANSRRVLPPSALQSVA
Sequence of CHEK1 (human) (O14757 whole entry, looked up): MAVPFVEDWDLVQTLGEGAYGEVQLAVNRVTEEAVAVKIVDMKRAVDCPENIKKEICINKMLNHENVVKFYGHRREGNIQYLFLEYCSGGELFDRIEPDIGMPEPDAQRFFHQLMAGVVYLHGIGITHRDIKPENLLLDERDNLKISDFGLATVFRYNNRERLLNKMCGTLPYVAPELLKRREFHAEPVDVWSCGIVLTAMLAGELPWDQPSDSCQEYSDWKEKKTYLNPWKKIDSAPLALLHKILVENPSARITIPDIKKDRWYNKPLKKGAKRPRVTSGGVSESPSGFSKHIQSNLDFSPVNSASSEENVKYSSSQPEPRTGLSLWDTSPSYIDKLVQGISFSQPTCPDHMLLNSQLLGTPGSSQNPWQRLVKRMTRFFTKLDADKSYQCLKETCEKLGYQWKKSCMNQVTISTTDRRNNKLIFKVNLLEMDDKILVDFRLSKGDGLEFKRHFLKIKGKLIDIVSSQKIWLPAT
Sequence of AKT3 (human) (Q9Y243 whole entry, looked up): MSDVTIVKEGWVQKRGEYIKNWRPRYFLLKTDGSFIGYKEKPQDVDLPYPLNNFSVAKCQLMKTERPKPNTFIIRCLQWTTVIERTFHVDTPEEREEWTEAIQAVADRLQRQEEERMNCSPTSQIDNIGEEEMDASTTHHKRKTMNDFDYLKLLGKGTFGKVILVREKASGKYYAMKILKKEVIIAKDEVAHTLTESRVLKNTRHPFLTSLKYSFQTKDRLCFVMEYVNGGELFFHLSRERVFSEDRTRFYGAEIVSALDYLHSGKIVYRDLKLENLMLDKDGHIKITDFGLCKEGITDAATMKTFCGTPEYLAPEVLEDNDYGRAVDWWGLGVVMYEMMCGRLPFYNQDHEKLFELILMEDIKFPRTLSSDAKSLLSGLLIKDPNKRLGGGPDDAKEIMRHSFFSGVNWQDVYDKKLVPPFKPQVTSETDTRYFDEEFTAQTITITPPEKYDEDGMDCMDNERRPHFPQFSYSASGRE
Sequence of AKT1 (human) (P31749 whole entry, looked up): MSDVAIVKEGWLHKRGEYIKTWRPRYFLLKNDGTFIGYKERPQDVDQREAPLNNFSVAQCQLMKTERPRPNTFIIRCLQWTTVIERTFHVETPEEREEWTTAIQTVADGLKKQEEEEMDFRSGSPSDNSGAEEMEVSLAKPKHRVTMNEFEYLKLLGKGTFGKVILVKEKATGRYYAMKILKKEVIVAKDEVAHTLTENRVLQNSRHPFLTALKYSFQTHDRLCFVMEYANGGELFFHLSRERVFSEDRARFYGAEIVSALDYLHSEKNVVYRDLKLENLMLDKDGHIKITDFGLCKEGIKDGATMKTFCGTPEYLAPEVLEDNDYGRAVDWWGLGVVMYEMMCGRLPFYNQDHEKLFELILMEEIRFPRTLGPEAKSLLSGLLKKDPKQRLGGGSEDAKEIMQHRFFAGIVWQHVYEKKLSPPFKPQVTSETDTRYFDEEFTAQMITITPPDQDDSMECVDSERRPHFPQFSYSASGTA
Sequence of IKBKB (human) (O14920 whole entry, looked up): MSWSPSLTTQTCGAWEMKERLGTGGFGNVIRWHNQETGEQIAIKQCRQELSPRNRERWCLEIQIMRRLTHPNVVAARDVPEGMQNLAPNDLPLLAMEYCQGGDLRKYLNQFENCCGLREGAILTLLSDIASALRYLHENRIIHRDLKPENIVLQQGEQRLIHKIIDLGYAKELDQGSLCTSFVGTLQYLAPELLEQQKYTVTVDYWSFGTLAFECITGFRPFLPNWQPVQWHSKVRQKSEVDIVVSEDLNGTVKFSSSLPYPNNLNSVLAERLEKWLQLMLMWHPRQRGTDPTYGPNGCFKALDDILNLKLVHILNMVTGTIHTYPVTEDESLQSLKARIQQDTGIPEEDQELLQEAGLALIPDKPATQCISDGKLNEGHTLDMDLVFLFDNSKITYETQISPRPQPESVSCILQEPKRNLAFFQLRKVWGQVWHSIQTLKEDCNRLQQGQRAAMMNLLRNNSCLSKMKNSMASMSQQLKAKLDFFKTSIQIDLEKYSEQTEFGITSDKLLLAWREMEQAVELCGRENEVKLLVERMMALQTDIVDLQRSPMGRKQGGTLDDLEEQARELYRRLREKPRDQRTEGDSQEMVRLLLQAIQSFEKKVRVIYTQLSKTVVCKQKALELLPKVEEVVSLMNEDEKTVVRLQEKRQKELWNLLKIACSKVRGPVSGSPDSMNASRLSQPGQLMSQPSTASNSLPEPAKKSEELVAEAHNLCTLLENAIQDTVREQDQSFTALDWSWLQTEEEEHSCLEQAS
Sequence of CLK2 (human) (P49760 whole entry, looked up): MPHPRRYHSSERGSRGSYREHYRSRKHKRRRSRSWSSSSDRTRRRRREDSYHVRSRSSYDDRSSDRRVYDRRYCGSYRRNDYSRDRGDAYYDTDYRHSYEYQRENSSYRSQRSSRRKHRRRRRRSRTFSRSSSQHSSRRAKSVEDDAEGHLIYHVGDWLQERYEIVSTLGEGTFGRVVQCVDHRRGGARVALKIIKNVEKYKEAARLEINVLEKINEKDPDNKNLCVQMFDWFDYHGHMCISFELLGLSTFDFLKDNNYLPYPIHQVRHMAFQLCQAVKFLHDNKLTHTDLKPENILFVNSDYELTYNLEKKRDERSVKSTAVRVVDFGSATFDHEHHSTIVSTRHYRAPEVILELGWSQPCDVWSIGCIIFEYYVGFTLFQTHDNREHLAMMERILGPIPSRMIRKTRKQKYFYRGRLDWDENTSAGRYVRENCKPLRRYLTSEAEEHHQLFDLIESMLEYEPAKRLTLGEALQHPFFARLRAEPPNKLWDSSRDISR

- inhibition ([1]; compound 0.1 µM): 17.2%
- inhibition ([1]; compound 1.0 µM): 5.5%
- inhibition ([1]; compound 10.0 µM): 9.1%
- inhibition ([2]; compound 0.1 µM): 11.3%
- inhibition ([2]; compound 1.0 µM): 10.6%
- inhibition ([2]; compound 10.0 µM): 14.6%
- inhibition ([3]; compound 0.1 µM): 19.7%
- inhibition ([3]; compound 1.0 µM): 51.8%
- inhibition ([3]; compound 10.0 µM): 96.4%
- inhibition ([4]; compound 0.1 µM): 23.2%
- inhibition ([4]; compound 1.0 µM): -1.2%
- inhibition ([4]; compound 10.0 µM): 14.2%
- inhibition ([5]; compound 0.1 µM): 9.2%
- inhibition ([5]; compound 1.0 µM): 22.8%
- inhibition ([5]; compound 10.0 µM): 69.8%
- inhibition ([6]; compound 0.1 µM): 4.6%
- inhibition ([6]; compound 1.0 µM): 6.6%
- inhibition ([6]; compound 10.0 µM): 8.5%
- inhibition ([7]; compound 0.1 µM): 1.8%
- inhibition ([7]; compound 1.0 µM): 3.8%
- inhibition ([7]; compound 10.0 µM): 35.8%
- inhibition ([8]; compound 0.1 µM): 17.9%
- inhibition ([8]; compound 1.0 µM): 20.8%
- inhibition ([8]; compound 10.0 µM): 20.1%
- inhibition ([9]; compound 0.1 µM): 19.9%
- inhibition ([9]; compound 1.0 µM): 29.2%
- inhibition ([9]; compound 10.0 µM): 71.1%
- inhibition ([10]; compound 0.1 µM): 6.9%
- inhibition ([10]; compound 1.0 µM): 2.2%
- inhibition ([10]; compound 10.0 µM): -39.8%
- inhibition ([11]; compound 0.1 µM): 18.9%
- inhibition ([11]; compound 1.0 µM): 37.2%
- inhibition ([11]; compound 10.0 µM): 68.9%
- inhibition ([12]; compound 0.1 µM): 8.9%
- inhibition ([12]; compound 1.0 µM): 11.2%
- inhibition ([12]; compound 10.0 µM): 10%
- inhibition [13]: 11.6%
- inhibition ([14]; compound 0.1 µM): 6.3%
- inhibition ([14]; compound 1.0 µM): 7.7%
- inhibition ([14]; compound 10.0 µM): 9.5%
- inhibition ([15]; compound 0.1 µM): 9.2%
- inhibition ([15]; compound 1.0 µM): 12.5%
- inhibition ([15]; compound 10.0 µM): 39.1%
Compound: Cn1cc(-c2cnc3ccc4ccc(CC(=O)NCc5ccccn5)cc4c(=O)c3c2)cn1
